Experimental data: patent US8691865B2 (AbbVie Inc., priority 2008, dated 2014)

molecular target: human Cav2.2 (Homo sapiens, UniProt Q00975); assay: Assessment of calcium channel activity using FLIPR (Ca2+ influx in IMR32 cells); format: cell-based; settings: not given
Procedure, shortened: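 Human neuroblastoma IMR32 cells were seeded at 1−1.2×10^5 cells/well and cultured 48 h at 37 °C before FLIPR calcium influx measurement. Percent inhibition at each concentration was calculated against the no-inhibitor signal, and IC50 came from sigmoidal dose-response fits.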

human Cav2.2, sequence (Q00975 whole entry): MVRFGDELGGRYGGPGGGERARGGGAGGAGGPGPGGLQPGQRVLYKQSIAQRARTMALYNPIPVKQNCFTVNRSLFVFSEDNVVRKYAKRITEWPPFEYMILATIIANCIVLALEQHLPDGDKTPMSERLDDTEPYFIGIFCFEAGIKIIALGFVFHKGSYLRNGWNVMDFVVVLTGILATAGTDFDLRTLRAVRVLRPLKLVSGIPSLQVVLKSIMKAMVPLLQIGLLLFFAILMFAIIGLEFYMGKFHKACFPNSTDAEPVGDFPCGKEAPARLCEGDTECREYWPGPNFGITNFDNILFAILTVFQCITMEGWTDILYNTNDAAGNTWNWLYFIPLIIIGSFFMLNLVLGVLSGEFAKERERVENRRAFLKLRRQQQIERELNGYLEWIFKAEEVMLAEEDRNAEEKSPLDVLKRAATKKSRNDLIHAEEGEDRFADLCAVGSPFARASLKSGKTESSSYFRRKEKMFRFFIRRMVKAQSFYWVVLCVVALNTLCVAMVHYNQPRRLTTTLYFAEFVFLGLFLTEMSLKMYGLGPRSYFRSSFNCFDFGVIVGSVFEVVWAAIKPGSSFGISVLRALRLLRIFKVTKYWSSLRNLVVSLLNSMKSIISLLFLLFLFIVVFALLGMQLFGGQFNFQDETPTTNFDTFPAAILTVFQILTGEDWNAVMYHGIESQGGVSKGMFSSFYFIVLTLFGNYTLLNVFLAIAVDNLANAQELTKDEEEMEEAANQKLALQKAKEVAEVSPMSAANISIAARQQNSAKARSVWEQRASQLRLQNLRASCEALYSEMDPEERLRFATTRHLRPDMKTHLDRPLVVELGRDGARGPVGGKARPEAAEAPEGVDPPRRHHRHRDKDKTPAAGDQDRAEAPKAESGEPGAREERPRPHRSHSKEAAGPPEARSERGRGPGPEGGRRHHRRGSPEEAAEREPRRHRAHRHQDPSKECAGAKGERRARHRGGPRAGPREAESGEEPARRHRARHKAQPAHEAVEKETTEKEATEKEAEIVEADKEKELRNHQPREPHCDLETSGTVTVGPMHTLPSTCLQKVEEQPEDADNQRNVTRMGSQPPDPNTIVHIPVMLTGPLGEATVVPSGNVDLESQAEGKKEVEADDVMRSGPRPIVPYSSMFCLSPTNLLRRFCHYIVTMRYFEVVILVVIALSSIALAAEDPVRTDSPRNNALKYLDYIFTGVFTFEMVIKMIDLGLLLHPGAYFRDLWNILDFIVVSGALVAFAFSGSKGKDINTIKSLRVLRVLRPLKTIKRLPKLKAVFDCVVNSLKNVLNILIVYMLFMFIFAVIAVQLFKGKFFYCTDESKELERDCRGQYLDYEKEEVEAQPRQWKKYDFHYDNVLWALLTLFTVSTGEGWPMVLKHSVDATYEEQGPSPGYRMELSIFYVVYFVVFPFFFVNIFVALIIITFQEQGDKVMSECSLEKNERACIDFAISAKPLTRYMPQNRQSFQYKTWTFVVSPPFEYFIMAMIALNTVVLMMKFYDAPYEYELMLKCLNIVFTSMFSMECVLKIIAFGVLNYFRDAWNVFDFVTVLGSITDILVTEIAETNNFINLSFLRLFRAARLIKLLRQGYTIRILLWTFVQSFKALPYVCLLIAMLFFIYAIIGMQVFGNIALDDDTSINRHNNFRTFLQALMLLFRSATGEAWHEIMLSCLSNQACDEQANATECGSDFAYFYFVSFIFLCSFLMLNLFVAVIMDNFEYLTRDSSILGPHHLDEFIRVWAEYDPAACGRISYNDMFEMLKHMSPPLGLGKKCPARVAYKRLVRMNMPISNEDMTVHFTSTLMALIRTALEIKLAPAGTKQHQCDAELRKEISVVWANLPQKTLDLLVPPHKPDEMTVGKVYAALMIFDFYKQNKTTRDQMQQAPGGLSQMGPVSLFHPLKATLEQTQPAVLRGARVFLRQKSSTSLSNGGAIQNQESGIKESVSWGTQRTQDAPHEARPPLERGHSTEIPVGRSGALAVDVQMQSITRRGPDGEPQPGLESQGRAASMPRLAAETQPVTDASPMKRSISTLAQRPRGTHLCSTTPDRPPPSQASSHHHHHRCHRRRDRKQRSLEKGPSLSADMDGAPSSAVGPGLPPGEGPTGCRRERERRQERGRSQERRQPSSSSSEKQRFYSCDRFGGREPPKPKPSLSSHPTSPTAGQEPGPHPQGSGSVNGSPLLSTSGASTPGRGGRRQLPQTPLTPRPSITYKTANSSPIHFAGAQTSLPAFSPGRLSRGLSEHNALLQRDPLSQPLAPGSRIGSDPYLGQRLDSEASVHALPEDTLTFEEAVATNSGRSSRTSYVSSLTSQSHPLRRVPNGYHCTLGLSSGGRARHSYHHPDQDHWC
human Cav2.2, sequence (P54289 25-956 partner limits assumed): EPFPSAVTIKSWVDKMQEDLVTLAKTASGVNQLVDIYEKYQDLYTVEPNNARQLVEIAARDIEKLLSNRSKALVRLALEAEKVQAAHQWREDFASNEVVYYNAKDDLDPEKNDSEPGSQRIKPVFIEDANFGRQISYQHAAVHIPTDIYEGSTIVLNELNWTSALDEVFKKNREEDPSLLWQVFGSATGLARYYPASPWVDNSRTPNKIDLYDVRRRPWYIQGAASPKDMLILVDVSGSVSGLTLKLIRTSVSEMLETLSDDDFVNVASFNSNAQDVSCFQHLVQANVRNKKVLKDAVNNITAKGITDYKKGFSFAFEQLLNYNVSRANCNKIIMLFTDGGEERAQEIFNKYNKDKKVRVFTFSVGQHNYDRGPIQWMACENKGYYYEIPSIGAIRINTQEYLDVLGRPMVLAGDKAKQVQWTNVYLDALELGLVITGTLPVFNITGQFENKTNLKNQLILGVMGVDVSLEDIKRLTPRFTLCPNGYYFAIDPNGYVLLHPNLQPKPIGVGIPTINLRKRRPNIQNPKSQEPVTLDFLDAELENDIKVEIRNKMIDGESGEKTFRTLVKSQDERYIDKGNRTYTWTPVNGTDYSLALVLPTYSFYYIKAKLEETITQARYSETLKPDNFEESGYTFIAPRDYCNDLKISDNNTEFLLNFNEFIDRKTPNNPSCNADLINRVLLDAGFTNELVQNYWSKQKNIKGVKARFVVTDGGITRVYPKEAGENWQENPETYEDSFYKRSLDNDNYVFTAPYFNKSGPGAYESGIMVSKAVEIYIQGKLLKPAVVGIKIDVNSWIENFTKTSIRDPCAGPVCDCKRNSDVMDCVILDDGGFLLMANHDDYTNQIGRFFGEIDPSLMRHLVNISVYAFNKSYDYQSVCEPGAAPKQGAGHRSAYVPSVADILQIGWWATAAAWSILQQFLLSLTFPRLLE
human Cav2.2, sequence (P54289 957-1103 partner limits assumed): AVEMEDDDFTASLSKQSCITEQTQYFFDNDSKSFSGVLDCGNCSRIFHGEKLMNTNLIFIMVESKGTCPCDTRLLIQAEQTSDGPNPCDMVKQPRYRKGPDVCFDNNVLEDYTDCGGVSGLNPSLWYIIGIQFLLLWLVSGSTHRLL
human Cav2.2, sequence (P54284 whole entry partner): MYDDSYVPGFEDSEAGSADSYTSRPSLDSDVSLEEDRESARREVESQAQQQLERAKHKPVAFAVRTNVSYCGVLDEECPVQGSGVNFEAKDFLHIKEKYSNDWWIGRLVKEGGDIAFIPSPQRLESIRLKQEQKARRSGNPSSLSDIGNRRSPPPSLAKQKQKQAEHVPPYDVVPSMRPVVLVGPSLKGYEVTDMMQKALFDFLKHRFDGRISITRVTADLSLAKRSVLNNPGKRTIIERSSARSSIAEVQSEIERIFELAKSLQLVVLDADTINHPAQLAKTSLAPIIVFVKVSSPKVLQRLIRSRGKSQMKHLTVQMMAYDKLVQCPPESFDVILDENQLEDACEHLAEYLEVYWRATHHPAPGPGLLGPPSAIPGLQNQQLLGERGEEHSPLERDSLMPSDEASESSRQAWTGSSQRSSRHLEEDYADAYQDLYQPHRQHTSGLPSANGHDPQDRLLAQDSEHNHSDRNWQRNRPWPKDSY

Compound | IC50
CC(C)C(C(=O)N[C@H]1CC[C@@H]2CN(CCCc3ccccc3)C[C@@H]21)c1ccccc1 (stereo partly drawn) [Example 105, 3-methyl-2-phenyl-N-[(3aR,4S,6aS)-2-(3-phenylpropyl)octahydrocyclopenta[c]pyrrol-4-yl]butanamide] | 1.21 µM
Cc1cccc(N2C[C@H]3CC[C@H](NC(=O)[C@@H]4C[C@@H](F)CN4)[C@H]3C2)c1 [Example 642, (4R)-4-fluoro-N-[(3aR,4S,6aS)-2-(3-methylphenyl)octahydrocyclopenta[c]pyrrol-4-yl]-L-prolinamide] | 15.6 µM
O=C(N[C@H]1CC[C@H]2CN(CCCc3cccc(F)c3)C[C@H]21)C(C1CCCCC1)C1CCCCC1 [Example 68, 2,2-dicyclohexyl-N-{(3aS,4S,6aR)-2-[3-(3-fluorophenyl)propyl]octahydrocyclopenta[c]pyrrol-4-yl}acetamide] | 0.82 µM
Fc1ccc2[nH]c(CN[C@H]3CC[C@@H]4CN(c5cccc(OC(F)(F)F)c5)C[C@@H]43)cc2c1 [Example 715, (3aR,4S,6aS)-N-[(5-fluoro-1H-indol-2-yl)methyl]-2-[3-(trifluoromethoxy)phenyl]octahydrocyclopenta[c]pyrrol-4-amine] | 2.78 µM
O=C(N[C@H]1CC[C@H]2CN(Cc3cccc(C(F)(F)F)c3)C[C@H]21)C(c1ccc(F)cc1)c1ccc(F)cc1 (relative stereo) [Example 136, 2,2-bis(4-fluorophenyl)-N-{(3aS*,4S*,6aR*)-2-[3-(trifluoromethyl)benzyl]octahydrocyclopenta[c]pyrrol-4-yl}acetamide] | 0.64 µM
N[C@H]1CC[C@@H]2CN(c3cccc(C(F)(F)F)c3)C[C@@H]21 [Example 605, (3aR,4S,6aS)-2-[3-(trifluoromethyl)phenyl]octahydrocyclopenta[c]pyrrol-4-amine] | 4.33 µM
O=C(N[C@H]1CC[C@@H]2CN(c3cccc(C(F)(F)F)n3)C[C@@H]21)c1cc2cc(F)ccc2[nH]1 [Example 697, 5-fluoro-N-{(3aR,4S,6aS)-2-[6-(trifluoromethyl)pyridin-2-yl]octahydrocyclopenta[c]pyrrol-4-yl}-1H-indole-2-carboxamide] | 2.24 µM
O=C(N[C@H]1CC[C@H]2CN(Cc3cccc(F)c3)C[C@H]21)C(C1CCCCC1)C1CCCCC1 [Example 64, 2,2-dicyclohexyl-N-[(3aS,4S,6aR)-2-(3-fluorobenzyl)octahydrocyclopenta[c]pyrrol-4-yl]acetamide] | 0.99 µM
FC(F)(F)c1cccc(N2C[C@H]3CC[C@H](NCc4c[nH]c5ccccc45)[C@H]3C2)n1 [Example 684, (3aR,4S,6aS)-N-(1H-indol-3-ylmethyl)-2-[6-(trifluoromethyl)pyridin-2-yl]octahydrocyclopenta[c]pyrrol-4-amine] | 1.05 µM

Results, then the compound that gave them:

IC50 | Compound
> 30 µM | CCC[C@H](NC(=O)OC(C)C)C(=O)N[C@H]1CC[C@@H]2CN(c3ccc(C(F)(F)F)cn3)C[C@@H]21 [Example 263, isopropyl(S)-1-oxo-1-((3aR,4S,6aS)-2-(5-(trifluoromethyl)pyridin-2-yl)octahydrocyclopenta[c]pyrrol-4-ylamino)pentan-2-ylcarbamate]
2.16 µM | CN[C@@H](CC(C)C)C(=O)N[C@H]1CC[C@@H]2CN(c3cccc(C#N)c3)C[C@@H]21 [Example 646, N-[(3aR,4S,6aS)-2-(3-cyanophenyl)octahydrocyclopenta[c]pyrrol-4-yl]-N^2-methyl-L-leucinamide]
15.7 µM | CC(C)N[C@@H](CC(C)(C)C)C(=O)N[C@H]1CC[C@@H]2CN(C(=O)[C@H](Cc3ccccc3)NC(C)C)C[C@@H]21 [Example 489, N^2-isopropyl-N^1-[(3aR,4S,6aS)-2-(N-isopropyl-L-phenylalanyl)octahydrocyclopenta[c]pyrrol-4-yl]-4-methyl-L-leucinamide]
2.11 µM | CCCC[C@H](NC)C(=O)N[C@H]1CC[C@@H]2CN(c3ccc(C(F)(F)F)cn3)C[C@@H]21 [Example 601, N^2-methyl-N-{(3aR,4S,6aS)-2-[5-(trifluoromethyl)pyridin-2-yl]octahydrocyclopenta[c]pyrrol-4-yl}-L-norleucinamide]
2.22 µM | FC(F)(F)c1cccc(N2C[C@H]3CC[C@H](NCc4ncc[nH]4)[C@H]3C2)n1 [Example 675, (3aR,4S,6aS)-N-(1H-imidazol-2-ylmethyl)-2-[6-(trifluoromethyl)pyridin-2-yl]octahydrocyclopenta[c]pyrrol-4-amine]
10.6 µM | CCC[C@H](NC)C(=O)N[C@H]1CC[C@@H]2CN(c3ccc(OC(F)(F)F)cc3)C[C@@H]21 [Example 719, N^2-methyl-N-{(3aR,4S,6aS)-2-[4-(trifluoromethoxy)phenyl]octahydrocyclopenta[c]pyrrol-4-yl}-L-norvalinamide]
> 9.5 µM | CN[C@H](C(=O)N[C@H]1CC[C@@H]2CN(c3ccc(C(F)(F)F)cc3)C[C@@H]21)C(C)C [Example 747, N^2-methyl-N-{(3aR,4S,6aS)-2-[4-(trifluoromethyl)phenyl]octahydrocyclopenta[c]pyrrol-4-yl}-L-valinamide]

same assay, conditions: read-out: IC50 (μM) or percent inhibition (* indicates 3 minute incubation, otherwise 60 minute); IC50; 60 minute pre-incubation with compound; IMR32 cells, 80 mM KCl depolarization

Compound | IC50
O=C(CC(c1ccc(F)cc1)c1ccc(F)cc1)N[C@@H]1CC[C@H]2CN(Cc3cccc(C(F)(F)F)c3)C[C@H]21 (relative stereo) [Example 143, 3,3-bis(4-fluorophenyl)-N-{(3aS*,4R*,6aR*)-2-[3-(trifluoromethyl)benzyl]octahydrocyclopenta[c]pyrrol-4-yl}propanamide] | 0.61 µM
N-(tert-butoxycarbonyl)-N-((3aR,4S,6aS)-2-{[3-(trifluoromethyl)phenyl]sulfonyl}octahydrocyclopenta[c]pyrrol-4-yl)-L-phenylalaninamide [Example 269] | 1.9 µM
O=C(N[C@H]1CC[C@H]2CN(C(c3ccccc3)c3ccccc3)C[C@H]21)C(C1CCCCC1)C1CCCCC1 [Example 120, N-[(3aS,4S,6aR)-2-benzhydryloctahydrocyclopenta[c]pyrrol-4-yl]-2,2-dicyclohexylacetamide] | 3.44 µM
O=C(N[C@H]1CC[C@@H]2CN(S(=O)(=O)c3cccc(C(F)(F)F)c3)C[C@@H]21)[C@@H]1Cc2ccccc2CN1 [Example 391, (3S)-N-((3aR,4S,6aS)-2-{[3-(trifluoromethyl)phenyl]sulfonyl}octahydrocyclopenta[c]pyrrol-4-yl)-1,2,3,4-tetrahydroisoquinoline-3-carboxamide] | 1.45 µM
O=S(=O)(N[C@H]1CC[C@H]2CN(Cc3cccc(C(F)(F)F)c3)C[C@H]21)c1cccc(C(F)(F)F)c1 [Example 187, 3-(trifluoromethyl)-N-{(3aS,4S,6aR)-2-[3-(trifluoromethyl)benzyl]octahydrocyclopenta[c]pyrrol-4-yl}benzenesulfonamide] | 1.24 µM
Cc1ccccc1CN1C[C@H]2CC[C@H](NC(=O)C(c3ccccc3)C(C)C)[C@H]2C1 (stereo partly drawn) [Example 92, 3-methyl-N-[(3aR,4S,6aS)-2-(2-methylbenzyl)octahydrocyclopenta[c]pyrrol-4-yl]-2-phenylbutanamide] | 2.04 µM
O=C(N[C@@H]1CC[C@H]2CN(Cc3cccc(C(F)(F)F)c3)C[C@H]21)C(O)(C1CCCCC1)C1CCCCC1 [Example 154, 2,2-dicyclohexyl-2-hydroxy-N-{(3aS,4R,6aR)-2-[3-(trifluoromethyl)benzyl]octahydrocyclopenta[c]pyrrol-4-yl}acetamide] | 1.33 µM
O=C(CCCC(c1ccc(F)cc1)c1ccc(F)cc1)N[C@@H]1CC[C@H]2CN(Cc3cccc(C(F)(F)F)c3)C[C@H]21 (relative stereo) [Example 142, 5,5-bis(4-fluorophenyl)-N-{(3aS*,4R*,6aR*)-2-[3-(trifluoromethyl)benzyl]octahydrocyclopenta[c]pyrrol-4-yl}pentanamide] | 0.86 µM
CC(C)(C)C[C@H](N)C(=O)N[C@H]1CC[C@@H]2CN(Cc3ccccc3)C[C@@H]21 [Example 361, N^1-[(3aR,4S,6aS)-2-benzyloctahydrocyclopenta[c]pyrrol-4-yl]-4-methyl-L-leucinamide] | 24.7 µM

Second part, the compound after the results:

IC50 | Compound
3.2 µM | CCC[C@H](NC)C(=O)N[C@H]1CC[C@@H]2CN(S(=O)(=O)c3ccc(C(C)(C)C)cc3)C[C@@H]21 [Example 543, N^1-{(3aR,4S,6aS)-2-[(4-tert-butylphenyl)sulfonyl]octahydrocyclopenta[c]pyrrol-4-yl}-N^2-methyl-L-norvalinamide]
4.55 µM | CC(C)C[C@H](NS(C)(=O)=O)C(=O)N[C@@H]1CC[C@H]2CN(Cc3cccc(C(F)(F)F)c3)C[C@H]21 [Example 170, N^2-(methylsulfonyl)-N^1-{(3aS,4R,6aR)-2-[3-(trifluoromethyl)benzyl]octahydrocyclopenta[c]pyrrol-4-yl}-L-leucinamide]
3.94 µM | CC(C)C[C@@H](N)C(=O)N[C@@H]1CC[C@H]2CN(Cc3cccc(C(F)(F)F)c3)C[C@H]21 (relative stereo) [Example 162, N^1-{(3aS*,4R*,6aR*)-2-[3-(trifluoromethyl)benzyl]octahydrocyclopenta[c]pyrrol-4-yl}-D-leucinamide]
13.3 µM | CCC[C@H](NC)C(=O)N[C@H]1CC[C@@H]2CN(Cc3ccc(C(F)(F)F)cc3)C[C@@H]21 [Example 377, N^2-methyl-N^1-{(3aR,4S,6aS)-2-[4-(trifluoromethyl)benzyl]octahydrocyclopenta[c]pyrrol-4-yl}-L-norvalinamide]
1.42 µM | CN[C@@H](CC(C)(C)C)C(=O)N(C)[C@H]1CC[C@@H]2CN(S(=O)(=O)c3ccc(C(F)(F)F)cc3Cl)C[C@@H]21 [Example 439, N^1-((3aR,4S,6aS)-2-{[2-chloro-4-(trifluoromethyl)phenyl]sulfonyl}octahydrocyclopenta[c]pyrrol-4-yl)-N^1,N^2,4-trimethyl-L-leucinamide]
10.6 µM | CCC[C@H](NC)C(=O)N[C@H]1CC[C@@H]2CN(Cc3cccc(C(F)(F)F)c3)C[C@@H]21 [Example 376, N^2-methyl-N^1-{(3aR,4S,6aS)-2-[3-(trifluoromethyl)benzyl]octahydrocyclopenta[c]pyrrol-4-yl}-L-norvalinamide]
